Assay results from ChEMBL document CHEMBL5029152, “Discovery of Highly Potent and Selective IRAK1 Degraders to Probe Scaffolding Functions of IRAK1 in ABC DLBCL” (J Med Chem, 2021).
pIC50: −log10 of the molar value. The source made the active and inactive calls. The rule behind the calls is not given here.

Key:
[1] = target: T1, Interleukin-1 receptor-associated kinase 1 (Homo sapiens, UniProt P51617); experiment: Induction of IRAK1 degradation in human Toledo cells assessed as decrease in protein abundance at 1 uM measured after 6 hrs by quantitative mass spectrometry; format: cell-based
T1 sequence (P51617 whole entry, looked up, the tested form may be a part): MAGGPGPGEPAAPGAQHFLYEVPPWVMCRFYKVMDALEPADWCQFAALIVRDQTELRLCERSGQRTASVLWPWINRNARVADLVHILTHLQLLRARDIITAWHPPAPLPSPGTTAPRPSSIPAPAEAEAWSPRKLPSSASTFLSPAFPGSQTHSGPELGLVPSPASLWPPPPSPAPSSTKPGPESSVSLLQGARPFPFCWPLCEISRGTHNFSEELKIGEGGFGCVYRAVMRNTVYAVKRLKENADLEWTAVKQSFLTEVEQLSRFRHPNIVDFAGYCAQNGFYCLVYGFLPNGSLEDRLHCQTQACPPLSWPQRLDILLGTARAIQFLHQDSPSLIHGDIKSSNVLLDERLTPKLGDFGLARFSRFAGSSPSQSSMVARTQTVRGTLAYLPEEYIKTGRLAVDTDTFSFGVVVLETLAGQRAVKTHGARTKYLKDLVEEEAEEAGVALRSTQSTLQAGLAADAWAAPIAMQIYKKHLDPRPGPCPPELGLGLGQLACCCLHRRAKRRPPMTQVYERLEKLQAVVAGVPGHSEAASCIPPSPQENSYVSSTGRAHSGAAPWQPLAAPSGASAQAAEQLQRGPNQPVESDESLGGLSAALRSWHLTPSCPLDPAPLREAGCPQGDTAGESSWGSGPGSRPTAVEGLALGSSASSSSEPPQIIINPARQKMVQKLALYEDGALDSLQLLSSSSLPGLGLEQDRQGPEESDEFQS

[2] = target: T2, Interleukin-1 receptor-associated kinase 4 (Homo sapiens, UniProt Q9NWZ3); experiment: Inhibition of full length human N-terminal GST-fusion tagged IRAK4 expressed in baculovirus expression system using FAM-labelled peptide as substrate preincubated for 10 mins followed by substrate addition and further incubated for 1 hr in presence of ATP at Km concentration by caliper mobility shift assay
T2 sequence (Q9NWZ3 whole entry): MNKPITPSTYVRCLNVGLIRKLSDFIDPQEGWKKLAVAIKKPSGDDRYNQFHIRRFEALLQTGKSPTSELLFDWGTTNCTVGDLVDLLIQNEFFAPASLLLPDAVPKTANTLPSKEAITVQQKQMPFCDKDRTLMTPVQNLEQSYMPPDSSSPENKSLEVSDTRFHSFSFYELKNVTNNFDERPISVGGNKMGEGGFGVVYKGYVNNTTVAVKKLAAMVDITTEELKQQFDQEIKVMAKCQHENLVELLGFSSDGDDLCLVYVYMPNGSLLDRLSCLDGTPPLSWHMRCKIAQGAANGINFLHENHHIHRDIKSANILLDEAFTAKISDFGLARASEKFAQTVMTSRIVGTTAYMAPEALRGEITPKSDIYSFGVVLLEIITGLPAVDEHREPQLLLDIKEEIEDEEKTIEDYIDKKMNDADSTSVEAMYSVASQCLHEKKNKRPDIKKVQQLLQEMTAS

[3] = target: NmrA-like family domain-containing protein 1 (Homo sapiens) (UniProt Q9HBL8); experiment: Induction of NMRAL1 degradation in human Toledo cells assessed as decrease in protein abundance at 1 uM measured after 6 hrs by quantitative mass spectrometry; format: cell-based
Sequence of NmrA-like family domain-containing protein 1 (Homo sapiens) (Q9HBL8 whole entry, the tested form may be a part): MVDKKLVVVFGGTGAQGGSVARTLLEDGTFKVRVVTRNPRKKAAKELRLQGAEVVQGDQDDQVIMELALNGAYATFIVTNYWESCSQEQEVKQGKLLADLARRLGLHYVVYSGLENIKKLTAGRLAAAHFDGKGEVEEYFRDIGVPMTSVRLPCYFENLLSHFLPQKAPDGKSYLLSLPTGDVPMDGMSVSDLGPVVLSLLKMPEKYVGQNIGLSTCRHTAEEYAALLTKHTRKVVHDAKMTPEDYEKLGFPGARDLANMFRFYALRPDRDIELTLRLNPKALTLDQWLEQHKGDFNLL

[4] = Cytotoxicity against human HBL1 cells assessed as reduction in cell viability measured after 12 days by CellTiter-Glo assay; format: functional; conditions: time 12 day
[5] = target: T3, Serine/threonine-protein kinase 17B (Homo sapiens) (UniProt O94768); experiment: Inhibition of wild-type human full length DRAK2 (M1 to C372 residues) expressed in bacterial expression system at 1 uM by Kinomescan method
T3 sequence (whole entry): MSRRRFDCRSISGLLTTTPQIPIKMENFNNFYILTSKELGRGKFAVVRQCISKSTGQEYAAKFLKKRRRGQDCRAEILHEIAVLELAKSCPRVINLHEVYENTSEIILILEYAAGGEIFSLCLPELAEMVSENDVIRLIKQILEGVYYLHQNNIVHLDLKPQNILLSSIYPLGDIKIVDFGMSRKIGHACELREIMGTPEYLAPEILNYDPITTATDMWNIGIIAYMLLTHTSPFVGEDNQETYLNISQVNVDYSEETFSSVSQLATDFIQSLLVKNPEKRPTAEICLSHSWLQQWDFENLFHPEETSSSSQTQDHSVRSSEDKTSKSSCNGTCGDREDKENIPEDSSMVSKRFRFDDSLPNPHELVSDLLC

[6] = target: T4, Cyclin-G-associated kinase (Homo sapiens) (UniProt O14976); experiment: Induction of GAK degradation in human Toledo cells at 1 uM measured after 6 hrs by quantitative mass spectrometry relative to control; format: cell-based
T4 sequence (whole entry): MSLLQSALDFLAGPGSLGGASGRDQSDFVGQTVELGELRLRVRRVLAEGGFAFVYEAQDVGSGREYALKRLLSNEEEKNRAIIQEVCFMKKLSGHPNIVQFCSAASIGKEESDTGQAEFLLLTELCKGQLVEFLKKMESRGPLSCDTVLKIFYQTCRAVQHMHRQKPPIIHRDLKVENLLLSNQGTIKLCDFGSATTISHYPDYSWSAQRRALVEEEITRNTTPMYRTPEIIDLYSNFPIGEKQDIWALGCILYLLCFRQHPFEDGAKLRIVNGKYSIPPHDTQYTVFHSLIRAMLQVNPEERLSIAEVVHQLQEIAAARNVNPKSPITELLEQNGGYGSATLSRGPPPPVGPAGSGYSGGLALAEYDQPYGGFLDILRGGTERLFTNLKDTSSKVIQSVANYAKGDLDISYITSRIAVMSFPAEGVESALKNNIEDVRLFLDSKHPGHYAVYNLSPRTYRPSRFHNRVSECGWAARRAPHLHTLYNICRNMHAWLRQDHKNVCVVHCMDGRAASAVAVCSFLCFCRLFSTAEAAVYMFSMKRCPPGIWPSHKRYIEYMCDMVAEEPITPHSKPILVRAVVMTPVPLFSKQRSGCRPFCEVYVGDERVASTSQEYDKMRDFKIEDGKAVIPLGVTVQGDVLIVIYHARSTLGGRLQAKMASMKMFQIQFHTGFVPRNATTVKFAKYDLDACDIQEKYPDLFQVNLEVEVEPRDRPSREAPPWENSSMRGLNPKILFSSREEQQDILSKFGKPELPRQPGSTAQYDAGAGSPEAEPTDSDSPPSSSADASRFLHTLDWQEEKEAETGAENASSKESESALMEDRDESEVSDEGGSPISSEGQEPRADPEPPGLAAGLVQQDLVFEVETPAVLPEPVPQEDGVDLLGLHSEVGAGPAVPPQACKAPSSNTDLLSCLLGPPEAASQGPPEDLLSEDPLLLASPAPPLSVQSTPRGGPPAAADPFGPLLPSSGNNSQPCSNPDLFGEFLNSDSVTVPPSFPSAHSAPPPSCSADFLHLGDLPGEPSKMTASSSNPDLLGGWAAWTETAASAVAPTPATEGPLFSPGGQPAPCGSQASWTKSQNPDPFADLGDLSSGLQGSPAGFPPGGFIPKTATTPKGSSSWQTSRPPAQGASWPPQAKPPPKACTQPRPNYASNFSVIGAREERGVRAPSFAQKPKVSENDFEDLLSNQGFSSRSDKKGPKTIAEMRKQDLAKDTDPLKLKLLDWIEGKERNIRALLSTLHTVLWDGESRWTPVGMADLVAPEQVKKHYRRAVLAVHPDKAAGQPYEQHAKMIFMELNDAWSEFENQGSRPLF

[7] = target: T5, von Hippel-Lindau disease tumor suppressor/Interleukin-1 receptor-associated kinase 1 (Homo sapiens, UniProt P51617+P40337); experiment: Protac activity at IRAK1/VHL E3 ligase in HEK293T cells assessed as induction of IRAK1 degradation at 1 uM measured after 24 hrsin presence of proteasome inhibitior MG-132 by Western blot analysis; format: cell-based; conditions: time 24.0 hrs
Target sequence in this assay (P40337 whole entry, looked up): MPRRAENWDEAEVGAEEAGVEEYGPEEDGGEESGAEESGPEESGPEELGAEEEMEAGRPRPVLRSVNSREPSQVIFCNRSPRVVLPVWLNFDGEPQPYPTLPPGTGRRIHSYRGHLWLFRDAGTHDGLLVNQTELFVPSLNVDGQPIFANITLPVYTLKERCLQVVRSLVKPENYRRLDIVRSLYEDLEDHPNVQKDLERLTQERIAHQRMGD
Target sequence in this assay (P51617 whole entry, looked up): as the sequence (P51617 whole entry, looked up, the tested form may be a part) above

[8] = target: T1, Interleukin-1 receptor-associated kinase 1; experiment: Inhibition of IRAK1 in human HBL1 cells assessed as reduction in phosphorylated STAT3 level at up to 1 uM measured after 24 hrs by Western blot analysis; format: cell-based; conditions: dose microM <=1, time 24.0 hrs
[9] = target: T5, von Hippel-Lindau disease tumor suppressor/Interleukin-1 receptor-associated kinase 1; experiment: Protac activity at IRAK1/VHL E3 ligase in HEK293T cells assessed as induction of IRAK1 degradation measured after 24 hrs by Western blot analysis; format: cell-based
Target sequence in this assay (P51617 whole entry): as the sequence (P51617 whole entry, looked up, the tested form may be a part) above
Target sequence in this assay (P40337 whole entry): as the sequence (P40337 whole entry, looked up) above

[10] = target: T4, Cyclin-G-associated kinase (Homo sapiens); experiment: Induction of GAK degradation in human Toledo cells assessed as decrease in protein abundance at 1 uM measured after 6 hrs by quantitative mass spectrometry; format: cell-based
[11] = target: BMP-2-inducible protein kinase (Homo sapiens) (UniProt Q9NSY1); experiment: Inhibition of wild-type human partial length BIKE (S34 to N329 residues) expressed in bacterial expression system at 1 uM by Kinomescan method
Sequence of BMP-2-inducible protein kinase (Homo sapiens) (Q9NSY1 whole entry, looked up, the tested form may be a part): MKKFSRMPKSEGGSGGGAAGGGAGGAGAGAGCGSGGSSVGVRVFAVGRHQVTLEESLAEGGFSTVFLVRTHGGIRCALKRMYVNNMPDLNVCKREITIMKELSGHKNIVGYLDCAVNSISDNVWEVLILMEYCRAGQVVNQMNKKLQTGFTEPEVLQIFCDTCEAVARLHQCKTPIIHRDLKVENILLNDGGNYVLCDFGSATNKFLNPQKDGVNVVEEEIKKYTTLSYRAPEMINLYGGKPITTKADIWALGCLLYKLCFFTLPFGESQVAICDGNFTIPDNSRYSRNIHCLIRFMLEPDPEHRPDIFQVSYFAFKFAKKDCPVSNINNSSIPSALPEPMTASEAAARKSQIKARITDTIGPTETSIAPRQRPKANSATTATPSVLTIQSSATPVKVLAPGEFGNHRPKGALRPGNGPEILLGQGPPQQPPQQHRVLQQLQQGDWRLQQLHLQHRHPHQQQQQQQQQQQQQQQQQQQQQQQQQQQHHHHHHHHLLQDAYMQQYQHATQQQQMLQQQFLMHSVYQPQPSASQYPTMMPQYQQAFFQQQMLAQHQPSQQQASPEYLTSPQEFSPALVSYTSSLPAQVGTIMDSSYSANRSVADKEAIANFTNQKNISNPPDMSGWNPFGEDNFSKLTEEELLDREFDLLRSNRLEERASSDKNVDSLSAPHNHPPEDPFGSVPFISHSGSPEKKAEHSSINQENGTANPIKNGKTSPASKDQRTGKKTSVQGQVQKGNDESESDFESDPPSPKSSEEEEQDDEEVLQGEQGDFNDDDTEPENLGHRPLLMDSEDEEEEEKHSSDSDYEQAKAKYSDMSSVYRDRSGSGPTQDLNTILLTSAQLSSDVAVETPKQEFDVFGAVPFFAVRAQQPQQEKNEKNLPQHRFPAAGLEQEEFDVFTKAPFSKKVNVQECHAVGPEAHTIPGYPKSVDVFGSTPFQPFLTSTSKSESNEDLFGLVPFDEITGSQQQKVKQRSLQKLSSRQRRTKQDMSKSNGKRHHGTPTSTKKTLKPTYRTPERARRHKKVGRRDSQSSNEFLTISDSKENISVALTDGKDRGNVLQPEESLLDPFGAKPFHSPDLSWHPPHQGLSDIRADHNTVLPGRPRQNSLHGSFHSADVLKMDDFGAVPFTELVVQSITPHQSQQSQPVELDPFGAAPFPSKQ

COc1cc(N2CCC(OCC(=O)N[C@H](C(=O)N3C[C@H](O)C[C@H]3C(=O)N[C@@H](C)c3ccc(-c4scnc4C)cc3)C(C)(C)C)CC2)ccc1NC(=O)c1cccc(-c2ccn[nH]2)n1
Activity [1]: Active | pIC50 [2]: 6.35 | Activity [3]: Active | Activity [4]: 60 nM | inhibition [5]: Active | Activity [6]: 50% | Activity [7]: inactive | inhibition [8]: Active | DC50 [9]: 3.3 nM | Activity [10]: Active | inhibition [11]: Active
